Results on 12 compounds are retold here after patent US20110184027A1, “TISSUE SELECTIVE STEAROYL-COA DESATURASE 1 INHIBITORS AND CELL BASED SCREENING ASSAY FOR THEIR IDENTIFICATION” (GLENMARK PHARMACEUTICALS S.A., priority 2008, published 2011).

For assay [1], the target named is T1, SCD-1 (Homo sapiens, UniProt O00767).
T1 sequence (O00767 1-359): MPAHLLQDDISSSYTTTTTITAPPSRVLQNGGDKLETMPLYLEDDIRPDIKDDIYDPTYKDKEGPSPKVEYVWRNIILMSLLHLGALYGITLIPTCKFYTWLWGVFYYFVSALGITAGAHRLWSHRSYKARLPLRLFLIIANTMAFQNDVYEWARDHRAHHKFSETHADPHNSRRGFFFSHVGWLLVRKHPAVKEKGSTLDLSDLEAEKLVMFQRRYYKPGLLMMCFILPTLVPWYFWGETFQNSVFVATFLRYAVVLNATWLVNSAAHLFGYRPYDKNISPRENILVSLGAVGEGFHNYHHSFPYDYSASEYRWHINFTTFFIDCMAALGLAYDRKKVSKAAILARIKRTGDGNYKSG
Briefly: Whole cell based SCD-1 assay in human liver cell line HepG2 (tritiated stearoyl CoA, labelled water release). Also on record: includes cells which express the SCD-1 gene product endogenously; endogenous in cells; host or cells: A431 (ATCC CRL 1555), not induced. Conditions: EC35. The protocol: (§1) An assay was developed using whole cells to screen for agents that modulate SCD-1 activity. Three cell lines namely human liver cell line (hepatocellular carcinoma HepG2 ATCC HB 8065), human skin cell line (epidermal carcinoma A431 ATCC CRL 1555) and human corneal epithelial progenitor (HCEP) cells (CELLNTEC advanced cell systems) were used. HepG2 cells were seeded in a 24 well plate in complete MEM medium (Hyclone). A431 cells were seeded in a 12 well plate in complete DMEM medium (Sigma). HCEP cells were seeded in a 96 well plate in defined corneal epithelial medium CnT 20 (CELLNTEC advanced cell systems). HepG2 cells were induced with LXR agonist T0901317 (Cayman chemicals) in medium containing high glucose and fatty acid free BSA for 3 days with media change every day (Wang et al, (2004) Journal of Lipid Research, 45, 972-980). A431 cells were not induced. (3). The cells were preincubated in plain medium with the known SCD-1 modulators namely CLA (conjugated linoleic acid) (Sigma) and TSA (9 thiastearic acid) (Cayman chemicals) for 15-30 minutes at 37 deg C. and further challenged with 0.25 to 7.5 μCi tritiated Stearoyl CoA (American Radiolabelled chemicals). The cells were incubated for last 6 hours in 5% CO2 incubator at 37 deg C. or in specific embodiments for 4 hours to 30 hours. At the end of the incubation, the incubation medium was collected into tubes. Dowex AG 1-X8 resin (Biorad laboratories) pre-equilibrated with distilled ethanol:water was added to the tubes to separate the unconsumed substrate from the labelled water. The tubes were then vortexed for 5 minutes and centrifuged at 14000 rpm for 20 minutes at room temperature. The supernatant from the tubes was mixed with the scintillation fluid and radioactivity counted in the Packard topcount scintillation counter (Perkin Elmer). Counts obtained were normalised per million cells. Inhibition of enzyme activity was calculated as the percent of maximum reaction control that contained no test compound.
(§2) The whole cell based assay was adapted to screen for agents that differentially modulate SCD-1 activity present in different tissues. Three cell lines namely human liver cell line (hepatocellular carcinoma HepG2), human skin cell line (epidermal carcinoma A431) and human corneal epithelial progenitor (HCEP) cells were used. HepG2 cells were seeded in a 24 well plate in complete MEM medium. A431 cells were seeded in a 12 well plate in complete DMEM medium. HCEP cells were seeded in a 96 well plate in defined corneal epithelial medium CnT 20. HepG2 cells were induced with LXR agonist T0901317 in medium containing 4.5 gm/litre glucose and 0.1% fatty acid free BSA for 3 days with media change every day (Wang et al, (2004) Journal of Lipid Research, 45, 972-980). A431 cells and HCEP cells were not induced. (3). The cells were preincubated in plain medium 0.1 nM to 10 μM concentrations potential SCD-1 modulator compounds for 15-30 minutes at 37 deg C. and further challenged with 0.25 to 7.5 μCi tritiated Stearoyl CoA. The cells were incubated for last 6 hours in 5% CO2 incubator at 37 deg C. or in specific embodiments for 4 hours to 30 hours. At the end of the incubation, the incubation medium was collected into tubes. Dowex AG 1-X8 resin pre-equilibrated with distilled ethanol:water was added to the tubes to separate the unconsumed substrate from the labelled water. The tubes were then vortexed for 5 minutes and centrifuged at 14000 rpm for 20 minutes at room temperature. The supernatant from the tubes was mixed with the scintillation fluid and radioactivity counted in the Packard topcount scintillation counter. Counts obtained were normalised per million cells. Inhibition of enzyme activity was calculated as the percent of maximum reaction control that contained no test compound. For active compounds, EC35 was calculated from dose response curve by non linear regression analysis using GraphPadPRISM software. The ratio of EC35 for skin cells to EC35 for liver cells was calculated. […]

Assay [2] concerns the target T1, SCD-1. The assay is described as follows: Whole cell based SCD-1 assay in human skin cell line A431 (tritiated stearoyl CoA, labelled water release). Further details: includes cells which express the SCD-1 gene product endogenously; endogenous in cells; host or cells: A431 (ATCC CRL 1555), not induced. Conditions: for IC35: EC35; for Fold Skin:liver: ratio of EC35 skin cells (A431) to EC35 liver cells (HepG2). How it is done: as §1, §2

Assay [3] deals with T1, SCD-1. Briefly: Whole cell based SCD-1 assay in human liver cell line HepG2 (tritiated stearoyl CoA, labelled water release). Conditions: for Fold Liver:skin: ratio of EC35 liver cells (HepG2) to EC35 skin cells (A431). Also on record: includes cells which express the SCD-1 gene product endogenously; endogenous in cells; host or cells: A431 (ATCC CRL 1555), not induced.
Assay [4] addresses T1, SCD-1. The assay is described as follows: Whole cell based SCD-1 assay in human skin cell line A431 (tritiated stearoyl CoA, labelled water release). Further details: includes cells which express the SCD-1 gene product endogenously; endogenous in cells; host or cells: A431 (ATCC CRL 1555), not induced.
In assay [5] the target is T1, SCD-1. Briefly: Whole cell based SCD-1 assay in human corneal epithelial progenitor (HCEP) cells. Further details: includes cells which express the SCD-1 gene product endogenously; endogenous in cells. The conditions noted are these: for IC35: HCEP human corneal epithelial cells, EC35, read-out: hCornea EC35; for Fold Liver:Cornea: ratio of EC35 liver cells (HepG2) to EC35 corneal cells (HCEP). How it is done: as §1
The whole cell based assay was adapted to screen for agents that differentially modulate SCD-1 activity present in different tissues. Three cell lines namely human liver cell line (hepatocellular carcinoma HepG2), human skin cell line (epidermal carcinoma A431) and human corneal epithelial progenitor (HCEP) cells were used. HepG2 cells were seeded in a 24 well plate in complete MEM medium. A431 cells were seeded in a 12 well plate in complete DMEM medium. HCEP cells were seeded in a 96 well plate in defined corneal epithelial medium CnT 20. HepG2 cells were induced with LXR agonist T0901317 in medium containing 4.5 gm/litre glucose and 0.1% fatty acid free BSA for 3 days with media change every day (Wang et al, (2004) Journal of Lipid Research, 45, 972-980). A431 cells and HCEP cells were not induced. (3). […] The cells were incubated for last 6 hours in 5% CO2 incubator at 37 deg C. or in specific embodiments for 4 hours to 30 hours. At the end of the incubation, the incubation medium was collected into tubes. […] The supernatant from the tubes was mixed with the scintillation fluid and radioactivity counted in the Packard topcount scintillation counter. […] Inhibition of enzyme activity was calculated as the percent of maximum reaction control that contained no test compound. For active compounds, EC35 was calculated from dose response curve by non linear regression analysis using GraphPadPRISM software. The ratio of EC35 for skin cells to EC35 for liver cells was calculated.

Setting [6] is: HepG2 liver cells, LXR agonist induced, read-out: Inhibition of SCD-1 activity in whole cell based assay (EC35), HepG2.
Where [7] appears, read: HepG2 human liver cells, read-out: hLiver EC35.
[8] abbreviates: A-431, A431 human skin cells, read-out: hSkin EC35.

What is called inhibition is how much of the control response was suppressed. As for `CCCCCCCCCSCCCCCCCC(=O)O` [TSA, 9 thiastearic acid, reference compound], the IC35 on SCD-1 [1] (setting [6]) is approximately 100000 nM; at SCD-1 [2] (A-431, A431 skin cells, not induced, read-out: Inhibition of SCD-1 activity in whole cell based assay (EC35), A431) it was approximately 100000 nM. For the same compound, the inhibition at 100 µM amounted to 58% at SCD-1 [3] (HepG2, HepG2 liver cells, at 100 μM, read-out: Percentage inhibition of SCD-1, HepG2) and 52% at SCD-1 [4] (A-431, A431 skin cells, at 100 μM, read-out: Percentage inhibition of SCD-1, A431).
`Cc1nc(-c2ccc(-c3ccc(O)cc3)nc2)sc1C(=O)NCCCc1ccccc1` [compound 1]: the figures for the IC35 at SCD-1 [1] (setting [7]) and on SCD-1 [2] (setting [8]) were 266 nM and 180 nM, respectively. In addition, at SCD-1 [3], the “Fold Liver:skin” value is on record as 1.47.
In the case of `Cc1nc(C#Cc2ccc(O)cc2)sc1C(=O)NCc1ccccc1` [compound 1], the IC35 at SCD-1 [5] was 218 nM; at SCD-1 [1] (setting [7]), 363 nM. In addition, the “Fold Liver:Cornea” value at SCD-1 [5] came to 1.66.
`Cc1nc(C#Cc2ccc(O)cc2)sc1C(=O)NCc1cccnc1` [compound 1]: the IC35 at SCD-1 [1] (setting [7]) was 2300 nM; on SCD-1 [2] (setting [8]), 2140 nM. Further, the “Fold Skin:liver” value on SCD-1 [2] came out at 0.93.
In the same order, the values of `Cc1nc(C#Cc2cccc(O)c2)sc1C(=O)NCc1ccccc1` [compound 1] are 3440 nM, 6900 nM and 2.00.
For the compound `Cc1nc(-c2ccc(-c3ccc(O)cc3)nc2)sc1C(=O)NCCc1ccccc1` [compound 2], the values for the IC35 at SCD-1 [1] (setting [7]) and on SCD-1 [2] (setting [8]) were 438 nM and 168 nM, respectively. For the same compound, on SCD-1 [3], the “Fold Liver:skin” value is reported as 2.60.
Take `Cc1nc(-n2cnn(Cc3ccc(F)cc3)c2=O)sc1C(=O)NCc1ccccc1` [compound 2]: the results for the IC35 on SCD-1 [1] (setting [7]) and at SCD-1 [2] (setting [8]) were 39.5 nM and 37.8 nM, respectively. The “Fold Skin:liver” value on SCD-1 [2] worked out at 0.95.
Take `Cc1nc(C#Cc2ccc(O)cc2)sc1C(=O)NCCc1ccc(F)cc1` [compound 2]: on SCD-1 [5], the IC35 was 53.2 nM and the “Fold Liver:Cornea” value is recorded as 9.02. Further, at SCD-1 [1] (setting [7]), the IC35 stood at 480 nM.
In the case of `Cc1nc(C#Cc2ccc(O)cc2)sc1C(=O)NCCc1ccccc1` [compound 2], the IC35 at SCD-1 [1] (setting [7]) was determined as 490 nM; on SCD-1 [2] (setting [8]), 982 nM. Also, on SCD-1 [2], the “Fold Skin:liver” value turned out to be 2.00.
In the same order, the values of `Cc1nc(-n2cnn(Cc3cccc(F)c3F)c2=O)sc1C(=O)NCc1ccccc1` [compound 3] are 29.4 nM, 33.8 nM and 1.15.
As for `Cc1nc(C#Cc2ccc(O)cc2)sc1C(=O)NCc1ccc(Cl)cc1` [compound 3], the results for the IC35 at SCD-1 [1] (setting [7]) and on SCD-1 [2] (setting [8]) were 698 nM and more than 10000 nM, respectively. The “Fold Skin:liver” value at SCD-1 [2] is more than 15.
For the compound “conjugated linoleic acid [CLA, reference compound]”, the “Percentage inhibition of SCD-1, HCEP” value at SCD-1 [5] (HCEP corneal cells, at 300 μM) is reported as approximately 80% at 300 μM. Besides, the IC35 on SCD-1 [1] (setting [6]) worked out at 22660 nM; on SCD-1 [2] (A431 skin cells, not induced, read-out: Inhibition of SCD-1 activity in whole cell based assay (EC35), A431) it was 16350 nM. The “Percentage inhibition of SCD-1, HepG2” value on SCD-1 [3] (HepG2 cells, at 300 μM) is recorded as “(~80.01% at 300 μM)”. The “Percentage inhibition of SCD-1, A431” value at SCD-1 [4] (A431 cells, at 300 μM) is listed as “(~91% at 300 μM)”.
